From US11318182B1, “Plant extract for skin infections” (priority 2021, dated 2022)

Tests used:
Format in all cases: cell-based
Conditions in all cases: plant extract 29 μg/ml
[1] = tested on: Bacillus cereus; test: Growth inhibition zone on nutrient agar
Method: (§1) In the preferred embodiment, grinded garlic, ginger, papaya seed, clover bud, tamarind and the coconut oil components are extracted by 95% ethanol and kept in dark four days at room temperature. The extracted homogenous texture is filtered through Whatman filter paper no. 1 by using Thermo Scientific Vacuum USA. The filtered extract pH is adjusted to 5.6. A drop of Lavender is added to the final concentration and the extract is refrigerated in sealed, amber-colored bottles at 4° C. after the concentration is determined. […], Penicillium notatum, and Aspergillus niger used as fungal species. Known isolates of Escherichia coli, Bacillus serous and Staphylococcus aureus used as bacterial species. Sabouraud dextrose agar (SDA) medium and Nutrient agar plates (NAP) used to confirm in vitro inhibition of the fungus and bacteria in 24, 48 and 72 hours at room temperature and 37° C. respectively. The antimicrobial activity of plant-extract specified by the formation of an inhibition zone is measured by using Vernier calipers. Also, 28 individuals evaluated after using the mixed plant-extract within two weeks trial controlling fungal and bacterial infections of the skin. […] Staphylococcus aureus, Bacillus cereus and Escherichia coli grown on nutrient agar (NA). Aspergillus niger, Penicillium notatum and […] tested fungal species grown on Sabouraud dextrose agar (SDA). […] The SDA and NA plates were filled with 20 ml of media and solidified in 24 hours at 37° C. incubator before inoculation of the of the microorganisms and the products to be tested.

[2] = tested on: Staphylococcus aureus; test: Growth inhibition zone on nutrient agar
Method: as §1

[3] = tested on: Escherichia coli; test: Growth inhibition zone on nutrient agar
Method: as §1

[4] = tested on: Serratia marcescens; test: Growth inhibition zone on Sabouraud dextrose agar
Method: as §1

[5] = tested on: Aspergillus niger; test: Growth inhibition zone on Sabouraud dextrose agar
Method: as §1

[6] = tested on: Penicillium notatum; test: Growth inhibition zone on Sabouraud dextrose agar
Method: as §1

Row | Compound | Growth inhibition by mm, B. cereus [1] | Growth inhibition by mm, S. Aureus [2] | Growth inhibition by mm, E. coli [3] | Growth inhibition by mm, S. marcescens [4] | Growth inhibition by mm, A. niger [5] | Growth inhibition by mm, P. notatum [6]
1 | Clc1ccccc1C(c1ccccc1)(c1ccccc1)n1ccnc1 [Clotrimazole 1%, clotrimazole] | 1 mm | 1.2 mm | 2.2 mm | 1.8 mm | 1.8 mm | 2.1 mm
2 | CN(C)[C@@H]1C(O)=C(C(N)=O)C(=O)[C@@]2(O)C(O)=C3C(=O)c4c(O)cccc4[C@@](C)(O)[C@H]3C[C@@H]12 [Tetracycline] | 1.3 mm | 1.3 mm | 1.2 mm | 0.7 mm | 0.8 mm | 0.7 mm
3 | C=CCCCCCCCCC(=O)O [Undecycleric add 25%, undecylenic acid] | 1.1 mm | 1.1 mm | 1.2 mm | 1.7 mm | 1.9 mm | 1.6 mm
4 | Penicillin | 1.9 mm | 1.9 mm | 2.5 mm | 1.6 mm | 1.7 mm | 1.4 mm
